Structures can show the parent of a compound that is named as a salt.
Tests used:
HXB2 virus = assay: microbe, parasite or virus in culture; type: cell-based, HIV; settings: Human immunodeficiency virus 1, HXB2, HeLaP4-2, read-out: antiviral IC50 (SCIA-B)
Method: An assay for measuring the inhibition of acute HIV infection with HeLa P4-2 cells in a single cycle infectivity assay (SCIA-A) was conducted in accordance with Joyce, J. G., et al., J. Biol. Chem., 2002, 277, 45811, Hazuda, D. J. et al., Science, 2000, 287, 646, and Kimpton, J. et al, J. Virol. 1992, 66, 2232. Infectious virus was produced by transfecting 293T cells with HIV proviral DNA in which the integrase gene was derived from a IIIB isolate and the remainder of the HIV genome was derived from the NL4-3 isolate.
This assay B for measuring the inhibition of acute HIV infection with HeLa P4-2 cells in a single cycle infectivity assay (SCIA-B) is essentially the same as Assay A described above, except that HXB2 virus is employed instead of the IIIb isolate.

HIV integrase = HIV integrase (Human immunodeficiency virus type 1 group M subtype B, UniProt P04585); assay: integrase strand transfer assay (STA); type: biochemical; settings: integrase strand transfer; read-out: IC50 in the STA assay

| Structure (SMILES) | IC50 (HXB2 virus) | IC50 (HIV integrase) |
| --- | --- | --- |
| O=c1cc(N2Cc3ccc(-c4ccccc4)cc3C2)c2cccnc2n1O [Example 256, 1-hydroxy-4-(5-phenyl-1,3-dihydro-2H-isoindol-2-yl)-1,8-naphthyridin-2(1H)-one] | < 100 µM | < 50 µM |
| O=c1cc(-c2ccc3ccccc3c2)c2cccnc2n1O [Example 173, 1-hydroxy-4-(2-naphthyl)-1,8-naphthyridin-2(1H)-one] | < 100 µM | < 50 µM |
| CCOC(=O)CN1CCN(c2cc(=O)n(O)c3ncccc23)CC1 [Example 164, ethyl[4-(1-hydroxy-2-oxo-1,2-dihydro-1,8-naphthyridin-4-yl)-1-piperazinyl]acetate] | < 100 µM | < 50 µM |
| O=c1cc(-c2ccc3cc[nH]c3c2)c2cccnc2n1O [Example 186, 1-hydroxy-4-(1H-indol-6-yl)-1,8-naphthyridin-2(1H)-one] | < 100 µM | < 50 µM |
| CCOC(=O)c1c(O)c2cc(Oc3ccc(N(CC)CC)cc3)cnc2n(O)c1=O [Example 90, Ethyl 6-[4-(diethylamino)phenoxy]-1,4-dihydroxy-2-oxo-1,2-dihydro-1,8-naphthyridine-3-carboxylate] | < 100 µM | < 50 µM |
| CCOC(=O)c1c(O)c2cc(C(=O)N3CCC(CCc4ccccc4)CC3)cnc2n(O)c1=O [Example 84, Ethyl 1,4-dihydroxy-2-oxo-6-{[4-(2-phenylethyl)piperidin-1-yl]carbonyl}-1,2-dihydro-1,8-naphthyridine-3-carboxylate] | < 100 µM | < 50 µM |
| O=c1c(-c2cccc(F)c2)c(O)c2cccnc2n1O [Example 36, 3-(3-Fluorophenyl)-1,4-dihydroxy-1,8-naphthyridin-2(1H)-one] | < 100 µM | < 50 µM |
| O=c1cc(N2CCc3ccc(-c4ccncc4)cc3C2)c2cccnc2n1O [Example 253, 1-hydroxy-4-(7-pyridin-4-yl-3,4-dihydroisoquinolin-2(1H)-yl)-1,8-naphthyridin-2(1H)-one] | < 100 µM | < 50 µM |
| COc1ccc(NC(=O)c2c(O)c3cccnc3n(O)c2=O)cc1 [Example 13, 1,4-Dihydroxy-N-(4-methoxyphenyl)-2-oxo-1,2-dihydro-1,8-naphthyridine-3-carboxamide] | < 100 µM | < 50 µM |
| CCOC(=O)c1c(O)c2cc(-c3cccnc3)cnc2n(O)c1=O [Example 58, Ethyl 1,4-dihydroxy-2-oxo-6-pyridin-3-yl-1,2-dihydro-1,8-naphthyridine-3-carboxylate] | < 100 µM | < 50 µM |
| O=c1cc(NC(CN2CCCCC2)c2ccccc2)c2cccnc2n1O (stereo not drawn) [Example 166, 1-hydroxy-4-{[1-phenyl-2-(1-piperidinyl)ethyl]amino}-1,8-naphthyridin-2 (1H-one)] | < 100 µM | < 50 µM |
| O=c1c(-c2ccccc2)c(O)c2cc(-c3cccc(-c4ccccc4)c3)cnc2n1O [Example 54, 6-Biphenyl-3-yl-1,4-dihydroxy-3-phenyl-1,8-naphthyridin-2(1H)-one] | < 100 µM | < 50 µM |
| O=c1cc(N2CCCC(CN3CCOCC3)C2)c2cccnc2n1O (stereo not drawn) [Example 144, 1-hydroxy-4-[3-(4-morpholinylmethyl)-1-piperidinyl]-1,8-naphthyridin-2(1H-one)] | < 100 µM | < 50 µM |
| O=C(NCc1ccccc1)c1cnc2c(c1)c(O)c(C(=O)NCc1ccccc1)c(=O)n2O [Example 87, N,N′-Dibenzyl-1,4-dihydroxy-2-oxo-1,2-dihydro-1,8-naphthyridine-3,6-dicarboxamide] | < 100 µM | < 50 µM |
| O=C(Nc1ccccc1OCc1ccccn1)c1c(O)c2cccnc2n(O)c1=O [Example 15, 1,4-Dihydroxy-2-oxo-N-[2-(pyridin-2-ylmethoxy)phenyl]-1,2-dihydro-1,8-naphthyridine-3-carboxamide, hydrochloric acid salt] | > 100 µM | < 50 µM |
| CC(=O)N1CCN(Cc2cccc(-c3cc(=O)n(O)c4ncccc34)c2)CC1 [Example 213, 4-{3-[(4-acetyl-1-piperazinyl)methyl]phenyl}-1-hydroxy-1,8-naphthyridin-2(1H-one)] | < 100 µM | < 50 µM |
| CCOC(=O)c1c(O)c2cc(Cc3ccccc3)cnc2n(O)c1=O [Example 63, Ethyl 6-benzyl-1,4-dihydroxy-2-oxo-1,2-dihydro-1,8-naphthyridine-3-carboxylate] | < 100 µM | < 50 µM |
| O=c1c(-c2ccccc2)c(O)c2cc(/C=C/c3ccccc3)cnc2n1O [Example 55, 1,4-Dihydroxy-3-phenyl-6-[(E)-2-phenylvinyl]-1,8-naphthyridin-2(1H)-one] | < 100 µM | < 50 µM |
| CCOC(=O)c1c(O)c2cc(C(=O)NCc3cccc(OC)c3)cnc2n(O)c1=O [Example 78, Ethyl 1,4-dihydroxy-6-{[3-methoxybenzyl)amino] carbonyl}-2-oxo-1,2-dihydro-1,8-naphthyridine-3-carboxylate] | < 100 µM | < 50 µM |
| CC(C1CCN(c2cc(=O)n(O)c3ncccc23)CC1)N1CCOCC1 (stereo not drawn) [Example 156, 1-hydroxy-4-{4-[1-(4-morpholinyl)ethyl]-1-piperidinyl}-1,8-naphthyridin-2(1H-one)] | < 100 µM | < 50 µM |
| O=c1c(C2CCCC2)c(O)c2cccnc2n1O [Example 41, 3-Cyclopentyl-1,4-dihydroxy-1,8-naphthyridin-2(1H)-one] | < 100 µM | < 50 µM |
| O=c1c(-c2ccccc2F)c(O)c2cccnc2n1O [Example 32, 3-(2-Fluorophenyl)-1,4-dihydroxy-1,8-naphthyridin-2(1H)-one] | < 100 µM | < 50 µM |
| O=c1cc(-c2cnc3[nH]ccc3c2)c2cccnc2n1O [Example 245, 1-hydroxy-4-(1H-pyrrolo[2,3-b]pyridin-5-yl)-1,8-naphthyridin-2(1H)-one bistrifluoroacetate] | < 100 µM | < 50 µM |
| CCOC(=O)c1c(O)c2cccnc2n(O)c1=O [Example 1, Ethyl 1,4-dihydroxy-2-oxo-1,2-dihydro-1,8-naphthyridine-3-carboxylate] | < 100 µM | < 50 µM |
| O=c1c2cc(-c3ccccc3)ccc2c2cccnc2n1O [Example 268, 5-Hydroxy-8-phenylbenzo[c]-1,8-naphthyridin-6(5H)-one] | < 100 µM | < 50 µM |
| O=c1cc(N2CCC(Cc3ccccc3)CC2)c2cccnc2n1O [Example 133, 4-(4-benzylpiperidin-1-yl)-1-hydroxy-1,8-naphthyridin-2(1H)-one] | < 100 µM | < 50 µM |
| CCOC(=O)c1ccnc2c1c(O)cc(=O)n2O [Example 88, Ethyl 5,8-dihydroxy-7-oxo-7,8-dihydro-1,8-naphthyridine-4-carboxylate] | < 100 µM | < 50 µM |
| O=c1c(-c2c(F)cccc2F)c(O)c2cccnc2n1O [Example 29, 3-(2,6-Difluorophenyl)-1,4-dihydroxy-1,8-naphthyridin-2(1H)-one] | < 100 µM | < 50 µM |
| CCc1cnc2c(c1)c(O)c(-c1ccccc1)c(=O)n2O [Example 73, 6-Ethyl-1,4-dihydroxy-3-phenyl-1,8-naphthyridin-2(1H)-one] | < 100 µM | < 50 µM |
| COc1cccc(CNc2cc(=O)n(O)c3ncccc23)c1 [Example 145, 1-hydroxy-4-[(3-methoxybenzyl)amino]-1,8-naphthyridin-2(1H-one)] | < 100 µM | < 50 µM |

Source: US20100056516A1 (priority 2006, published 2010)
